Measured values as given in paper PMC10648541, “Design, Synthesis, and Antiproliferative Activity of Selective Histone Deacetylases 6 Inhibitors Containing a Tetrahydropyridopyrimidine Scaffold” (Molecules, 2023).
pIC50: −log10 of the molar value.

Columns and labels:
HDAC6 = molecular target: T1, HDAC6 (Homo sapiens, UniProt Q9UBN7); test: In vitro HDAC enzyme assay (Reaction Biology Corporation), HDAC6; assay type: biochemical
T1 construct: purchased Reaction Biology Corporation
T1 sequence (Q9UBN7 1-1215): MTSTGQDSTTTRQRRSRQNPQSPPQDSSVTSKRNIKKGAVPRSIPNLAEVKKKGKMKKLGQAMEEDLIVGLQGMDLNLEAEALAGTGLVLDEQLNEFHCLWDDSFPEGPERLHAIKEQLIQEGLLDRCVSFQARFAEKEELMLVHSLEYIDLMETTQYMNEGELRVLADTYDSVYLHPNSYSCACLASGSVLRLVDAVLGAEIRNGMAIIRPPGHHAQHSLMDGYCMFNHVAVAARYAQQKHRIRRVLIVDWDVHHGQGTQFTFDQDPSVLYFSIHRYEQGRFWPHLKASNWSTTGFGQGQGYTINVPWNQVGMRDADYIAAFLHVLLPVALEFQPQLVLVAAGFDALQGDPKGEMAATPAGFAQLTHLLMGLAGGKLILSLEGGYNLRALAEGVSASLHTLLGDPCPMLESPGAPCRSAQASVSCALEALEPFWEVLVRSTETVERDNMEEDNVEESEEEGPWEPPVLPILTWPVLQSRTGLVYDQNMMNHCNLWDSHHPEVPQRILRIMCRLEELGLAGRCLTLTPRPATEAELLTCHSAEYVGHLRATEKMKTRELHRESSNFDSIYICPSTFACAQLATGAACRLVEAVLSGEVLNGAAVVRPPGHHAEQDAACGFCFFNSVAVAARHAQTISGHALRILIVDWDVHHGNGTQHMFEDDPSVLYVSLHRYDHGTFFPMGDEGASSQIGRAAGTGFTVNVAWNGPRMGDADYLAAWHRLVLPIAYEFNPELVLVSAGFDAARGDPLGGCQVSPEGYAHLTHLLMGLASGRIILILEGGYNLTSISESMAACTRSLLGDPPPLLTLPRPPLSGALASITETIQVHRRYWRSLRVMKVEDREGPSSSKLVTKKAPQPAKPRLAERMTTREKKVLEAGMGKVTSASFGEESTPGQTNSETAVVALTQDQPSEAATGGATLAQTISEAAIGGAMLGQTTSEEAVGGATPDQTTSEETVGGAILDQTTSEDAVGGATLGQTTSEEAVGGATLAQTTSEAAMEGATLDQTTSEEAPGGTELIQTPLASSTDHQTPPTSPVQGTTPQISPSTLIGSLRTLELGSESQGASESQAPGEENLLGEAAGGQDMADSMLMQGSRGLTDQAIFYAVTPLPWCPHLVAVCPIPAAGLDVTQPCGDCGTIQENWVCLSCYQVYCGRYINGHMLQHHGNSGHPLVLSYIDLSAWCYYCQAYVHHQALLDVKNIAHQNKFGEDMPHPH

A498 = test: NCI-60 antiproliferative screening, A498; assay type: cell-based; settings: Homo sapiens, A498 (Renal Cancer), read-out: Inhibition% values at 10 μM concentration
Text: (§1) Then, 8f was submitted to NCI for antiproliferative evaluation against 59 different tumor cell lines. The cancer types of the NCI-60 program include leukemia, non-small cell lung cancer (NSCLC), colon cancer, CNS cancer, melanoma, ovary cancer, renal cancer, prostate cancer, and breast cancer.

NCI-H460 = test: NCI-60 antiproliferative screening, NCI-H460; assay type: cell-based; settings: Homo sapiens, NCI-H460 (Non-Small Cell Lung Cancer), read-out: Inhibition% values at 10 μM concentration
Text: as §1

K-562 = test: NCI-60 antiproliferative screening, K-562; assay type: cell-based; settings: Homo sapiens, K562, K-562 (Leukemia), read-out: Inhibition% values at 10 μM concentration
Text: as §1

HS 578T = test: NCI-60 antiproliferative screening, HS 578T; assay type: cell-based; settings: Homo sapiens, HS 578T (Breast Cancer), read-out: Inhibition% values at 10 μM concentration
Text: as §1

TK-10 = test: NCI-60 antiproliferative screening, TK-10; assay type: cell-based; settings: Homo sapiens, TK-10 (Renal Cancer), read-out: Inhibition% values at 10 μM concentration
Text: as §1

NCI-H226 = test: NCI-60 antiproliferative screening, NCI-H226; assay type: cell-based; settings: Homo sapiens, NCI-H226 (Non-Small Cell Lung Cancer), read-out: Inhibition% values at 10 μM concentration
Text: as §1

PC-3 = test: NCI-60 antiproliferative screening, PC-3; assay type: cell-based; settings: Homo sapiens, PC-3 (Prostate Cancer), read-out: Inhibition% values at 10 μM concentration
Text: as §1

KM12 = test: NCI-60 antiproliferative screening, KM12; assay type: cell-based; settings: Homo sapiens, KM12 (Colon Cancer), read-out: Inhibition% values at 10 μM concentration
Text: as §1

OVCAR-3 = test: NCI-60 antiproliferative screening, OVCAR-3; assay type: cell-based; settings: Homo sapiens, OVCAR-3 (Ovarian Cancer), read-out: Inhibition% values at 10 μM concentration
Text: as §1

MOLT-4 = test: NCI-60 antiproliferative screening, MOLT-4; assay type: cell-based; settings: Homo sapiens, MOLT-4 (Leukemia), read-out: Inhibition% values at 10 μM concentration
Text: as §1

NCI/ADR-RES = test: NCI-60 antiproliferative screening, NCI/ADR-RES; assay type: cell-based; settings: Homo sapiens, NCI/ADR-RES (Ovarian Cancer), read-out: Inhibition% values at 10 μM concentration
Text: as §1

SF-295 = test: NCI-60 antiproliferative screening, SF-295; assay type: cell-based; settings: Homo sapiens, SF-295 (CNS Cancer), read-out: Inhibition% values at 10 μM concentration
Text: as §1

MDA-MB-435 = test: NCI-60 antiproliferative screening, MDA-MB-435; assay type: cell-based; settings: Homo sapiens, MDA-MB-435 (Melanoma), read-out: Inhibition% values at 10 μM concentration
Text: as §1

SK-OV-3 = test: NCI-60 antiproliferative screening, SK-OV-3; assay type: cell-based; settings: Homo sapiens, SK-OV-3 (Ovarian Cancer), read-out: Inhibition% values at 10 μM concentration
Text: as §1

OVCAR-4 = test: NCI-60 antiproliferative screening, OVCAR-4; assay type: cell-based; settings: Homo sapiens, OVCAR-4 (Ovarian Cancer), read-out: Inhibition% values at 10 μM concentration
Text: as §1

**Q.** `COc1cccc(-c2nc3c(c(-c4cccc(OC)c4)n2)CCN(C(=O)CCCCCCC(=O)NO)C3)c1` [Compound 8f, 8-(2,4-Bis(3-methoxyphenyl)-5,8-dihydropyrido [3,4-d]pyrimidin-7(6H)-yl)-N-hydroxy-8-oxooctanamide] was tested. Which “selectivity over other subtypes” value (HDAC6; HDAC6 over other HDAC subtypes) did it give?
**A.** > 48 fold

**Q.** And the “Selectivity Index” value (HDAC6; Table 1, HDAC6 against HDAC1)?
**A.** 48

**Q.** What about the pIC50 (HDAC6; Table 1, duplicate, SD < 15%) of the same compound?
**A.** 8.19

**Q.** And the inhibition at 10 µM (A498)?
**A.** 100%

**Q.** And the inhibition at 10 µM (NCI-H460)?
**A.** 95.5%

**Q.** What about the inhibition at 10 µM (K-562) of the same compound?
**A.** 90.2%

**Q.** And the inhibition at 10 µM (HS 578T)?
**A.** 97.8%

**Q.** What about the inhibition at 10 µM (TK-10) of the same compound?
**A.** 100%

**Q.** What about the inhibition at 10 µM (NCI-H226) of the same compound?
**A.** 93.3%

**Q.** And the inhibition at 10 µM (PC-3)?
**A.** 83.3%

**Q.** What about the inhibition at 10 µM (KM12) of the same compound?
**A.** 88.4%

**Q.** And the inhibition at 10 µM (OVCAR-3)?
**A.** 100%

**Q.** What about the inhibition at 10 µM (MOLT-4) of the same compound?
**A.** 87.7%

**Q.** And the inhibition at 10 µM (NCI/ADR-RES)?
**A.** 100%

**Q.** And the inhibition at 10 µM (SF-295)?
**A.** 100%

**Q.** And the inhibition at 10 µM (MDA-MB-435)?
**A.** 95.8%

**Q.** And the inhibition at 10 µM (SK-OV-3)?
**A.** 100%

**Q.** And the inhibition at 10 µM (OVCAR-4)?
**A.** 67.1%
